Measured values: patent publication US20240358818A1, “ANTIBODY-INDUCING POLYPEPTIDE AND VACCINE” (priority 2021, published 2024)
No end group written: not given here.

Columns and labels:
[1] = tested on: IgG in serum samples of patients recovered from SARS-COV-2 infection; assay type: binding, human
S2 protein of SARS-COV-2 = S2 protein of SARS-COV-2 (Severe acute respiratory syndrome coronavirus 2, UniProt P0DTC2)
[2] = target: RBD protein of SARS-COV-2 (Severe acute respiratory syndrome coronavirus 2, UniProt P0DTC2)
[3] = target: binding between ACE2 and RBD (Severe acute respiratory syndrome coronavirus 2, UniProt P0DTC2); settings: for inhibition of the binding between ACE2 and RBD: serum of mice sensitized with conjugate, FIG. 2, FIG. 3(A)

Sequence	reaction with antibodies in serum samples obtained from the 5 patients [1]	S2 recognizing ability of mouse serum IgG (S2 protein of SARS-COV-2)	RBD recognition ability of mouse serum IgG [2]	also measured
DRLNEVAKNLNESLIDLQE (also: conjugate) [#115]	strongly react	high	–	–
ELDSFKEELDKYFKNHTS (also: conjugate) [#111]	strongly react	high	–	–
SNLKPFERDISTEIYQAGSTPC [#11]	–	–	high	inhibitory ability on ACE2-RBD binding compared with positive control ([3]; mouse serum diluted to 100-fold, positive control mouse anti-RBD polyclonal antibody, FIG. 2): equivalent to that of the positive control; inhibitory effects on ACE2-RBD binding compared with serum of recovered patients ([3]; versus the 4 patients other than patient A, FIG. 3(B)): substantially equivalent
EVRQIAPGQTGKIADYNYKLPD [#8]	–	–	high	–
YGVSPTKLNDLCF (also: conjugate) [#5]	–	–	without the RBD protein recognizing ability	inhibition of the binding between ACE2 and RBD [3]: substantially no inhibitory activity was observed
NATRFASVYAWNRKRISNC [#3]	–	–	high	inhibition of the binding between ACE2 and RBD [3]: inhibit the binding between ACE2 and RBD
ASVVNIQKEIDRLNEVAKNL [#114]	strongly react	high	–	–
